{"source": "patent US12479895B2", "about": "“C-terminal CDNF and MANF fragments, pharmaceutical compositions comprising same and uses thereof” (MyNeuroCure Oy, priority 2018, dated 2025)", "key": {"[1]": {"test_system": "dopamine neurons", "test": "Survival of TH-positive dopamine neurons in dissociated midbrain floor cultures", "assay_type": "cell-based, mouse", "settings": "for Fold change of survived neurons compared to neurons grown without growth factors: data of Table 3 divided by values of no factor", "summary_of_the_method": "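Dissociated E13.5 NMRI mouse midbrain floor neurons grown five days in DMEM/F12 with N2, with polypeptides at a range of concentrations, GDNF (100 ng/ml), or nothing. TH-immunopositive neurons were counted by imaging. Values are a percentage of GDNF-maintained TH-positive neurons, as mean ± SEM from at least three independent cultures.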"}, "[2]": {"test_system": "ER stressed SCG neurons", "test": "Survival of tunicamycin-treated (ER stressed) SCG sympathetic neurons after microinjection", "assay_type": "cell-based, mice", "settings": "for survived neurons as % compared to neurons grown in the presence of NGF: microinjected into cytoplasm, tunicamycin 2 μM, CDNF (400); for Fold change of survived neurons compared to neurons injected with PBS: data of Table 1 divided by values of PBS", "summary_of_the_method": "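Newborn mouse SCG neurons grown 5-6 days with 30 ng/ml NGF, then microinjected with CDNF (FL or C-terminal) plasmids (10 ng/ul, EGFP reporter) or proteins (200 ng/ul, Dextran Texas Red). Tunicamycin (2 μM) added next day. Fluorescent survivors counted blindly after 3 days as % of initial; compared with vector or PBS (ANOVA/Dunnett).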"}, "[3]": {"settings": "Table 3B (FIG. 17), AVG, 1 ng/ml, 5 days"}, "[4]": {"settings": "Table 3B (FIG. 17), AVG, 10 ng/ml, 5 days"}, "[5]": {"settings": "Table 3B (FIG. 17), AVG, 100 ng/ml, 5 days"}, "[6]": {"settings": "Table 3B (FIG. 17), AVG, 1000 ng/ml, 5 days"}, "[7]": {"settings": "Table 1B (FIG. 16), exp1, counted after 3 days"}, "[8]": {"settings": "Table 1B (FIG. 16), exp2, counted after 3 days"}, "[9]": {"settings": "Table 1B (FIG. 16), exp3, counted after 3 days"}}}
{"sequence": "VDLRKMRVAELKQILHSWGEECRACAEKTDYVNLIQELAPKYA (listed as Homo sapiens) [pep6]", "values": [{"measurement": "survived neurons as % compared to neurons grown in the presence of GDNF", "setting": "[1]; Table 3A (FIG. 15), AVG, 1 ng/ml, 5 days", "value": 65.97, "unit": "% GDNF"}, {"measurement": "survived neurons as % compared to neurons grown in the presence of GDNF", "setting": "[1]; Table 3A (FIG. 15), AVG, 10 ng/ml, 5 days", "value": 75.95, "unit": "% GDNF"}, {"measurement": "survived neurons as % compared to neurons grown in the presence of GDNF", "setting": "[1]; Table 3A (FIG. 15), AVG, 100 ng/ml, 5 days", "value": 73.52, "unit": "% GDNF"}, {"measurement": "survived neurons as % compared to neurons grown in the presence of GDNF", "setting": "[1]; Table 3A (FIG. 15), AVG, 1000 ng/ml, 5 days", "value": 70.75, "unit": "% GDNF"}, {"measurement": "survived neurons as % compared to neurons grown in the presence of GDNF", "setting": "[1]; Table 3A (FIG. 15), exp1, 1 ng/ml, 5 days", "value": 62.89, "unit": "% GDNF"}, {"measurement": "survived neurons as % compared to neurons grown in the presence of GDNF", "setting": "[1]; Table 3A (FIG. 15), exp1, 10 ng/ml, 5 days", "value": 66.29, "unit": "% GDNF"}, {"measurement": "survived neurons as % compared to neurons grown in the presence of GDNF", "setting": "[1]; Table 3A (FIG. 15), exp1, 100 ng/ml, 5 days", "value": 71.71, "unit": "% GDNF"}, {"measurement": "survived neurons as % compared to neurons grown in the presence of GDNF", "setting": "[1]; Table 3A (FIG. 15), exp1, 1000 ng/ml, 5 days", "value": 63.01, "unit": "% GDNF"}, {"measurement": "survived neurons as % compared to neurons grown in the presence of GDNF", "setting": "[1]; Table 3A (FIG. 15), exp2, 1 ng/ml, 5 days", "value": 77.34, "unit": "% GDNF"}, {"measurement": "survived neurons as % compared to neurons grown in the presence of GDNF", "setting": "[1]; Table 3A (FIG. 15), exp2, 10 ng/ml, 5 days", "value": 83.75, "unit": "% GDNF"}, {"measurement": "survived neurons as % compared to neurons grown in the presence of GDNF", "setting": "[1]; Table 3A (FIG. 15), exp2, 100 ng/ml, 5 days", "value": 71.86, "unit": "% GDNF"}, {"measurement": "survived neurons as % compared to neurons grown in the presence of GDNF", "setting": "[1]; Table 3A (FIG. 15), exp2, 1000 ng/ml, 5 days", "value": 67.06, "unit": "% GDNF"}, {"measurement": "survived neurons as % compared to neurons grown in the presence of GDNF", "setting": "[1]; Table 3A (FIG. 15), exp3, 1 ng/ml, 5 days", "value": 57.68, "unit": "% GDNF"}, {"measurement": "survived neurons as % compared to neurons grown in the presence of GDNF", "setting": "[1]; Table 3A (FIG. 15), exp3, 10 ng/ml, 5 days", "value": 77.81, "unit": "% GDNF"}, {"measurement": "survived neurons as % compared to neurons grown in the presence of GDNF", "setting": "[1]; Table 3A (FIG. 15), exp3, 100 ng/ml, 5 days", "value": 76.97, "unit": "% GDNF"}, {"measurement": "survived neurons as % compared to neurons grown in the presence of GDNF", "setting": "[1]; Table 3A (FIG. 15), exp3, 1000 ng/ml, 5 days", "value": 82.17, "unit": "% GDNF"}, {"measurement": "Fold change of survived neurons compared to neurons grown without growth factors", "setting": "[1]; Table 4, AVG, 1 ng/ml", "value": 1.07, "unit": "fold"}, {"measurement": "Fold change of survived neurons compared to neurons grown without growth factors", "setting": "[1]; Table 4, AVG, 10 ng/ml", "value": 1.23, "unit": "fold"}, {"measurement": "Fold change of survived neurons compared to neurons grown without growth factors", "setting": "[1]; Table 4, AVG, 100 ng/ml", "value": 1.19, "unit": "fold"}, {"measurement": "Fold change of survived neurons compared to neurons grown without growth factors", "setting": "[1]; Table 4, AVG, 1000 ng/ml", "value": 1.15, "unit": "fold"}, {"measurement": "Fold change of survived neurons compared to neurons grown without growth factors", "setting": "[1]; Table 4, exp1, 1 ng/ml", "value": 1.10, "unit": "fold"}, {"measurement": "Fold change of survived neurons compared to neurons grown without growth factors", "setting": "[1]; Table 4, exp1, 10 ng/ml", "value": 1.16, "unit": "fold"}, {"measurement": "Fold change of survived neurons compared to neurons grown without growth factors", "setting": "[1]; Table 4, exp1, 100 ng/ml", "value": 1.25, "unit": "fold"}, {"measurement": "Fold change of survived neurons compared to neurons grown without growth factors", "setting": "[1]; Table 4, exp1, 1000 ng/ml", "value": 1.10, "unit": "fold"}, {"measurement": "Fold change of survived neurons compared to neurons grown without growth factors", "setting": "[1]; Table 4, exp2, 1 ng/ml", "value": 1.23, "unit": "fold"}, {"measurement": "Fold change of survived neurons compared to neurons grown without growth factors", "setting": "[1]; Table 4, exp2, 10 ng/ml", "value": 1.33, "unit": "fold"}, {"measurement": "Fold change of survived neurons compared to neurons grown without growth factors", "setting": "[1]; Table 4, exp2, 100 ng/ml", "value": 1.14, "unit": "fold"}, {"measurement": "Fold change of survived neurons compared to neurons grown without growth factors", "setting": "[1]; Table 4, exp2, 1000 ng/ml", "value": 1.06, "unit": "fold"}, {"measurement": "Fold change of survived neurons compared to neurons grown without growth factors", "setting": "[1]; Table 4, exp3, 1 ng/ml", "value": 0.89, "unit": "fold"}, {"measurement": "Fold change of survived neurons compared to neurons grown without growth factors", "setting": "[1]; Table 4, exp3, 10 ng/ml", "value": 1.20, "unit": "fold"}, {"measurement": "Fold change of survived neurons compared to neurons grown without growth factors", "setting": "[1]; Table 4, exp3, 100 ng/ml", "value": 1.19, "unit": "fold"}, {"measurement": "Fold change of survived neurons compared to neurons grown without growth factors", "setting": "[1]; Table 4, exp3, 1000 ng/ml", "value": 1.27, "unit": "fold"}, {"measurement": "survived neurons as % compared to neurons grown in the presence of NGF", "setting": "[2]; Table 1A (FIG. 14), AVG of exp1-2", "value": 78.47, "unit": "% NGF"}, {"measurement": "survived neurons as % compared to neurons grown in the presence of NGF", "setting": "[2]; Table 1A (FIG. 14), exp1, counted after 3 days", "value": 81.94, "unit": "% NGF"}, {"measurement": "survived neurons as % compared to neurons grown in the presence of NGF", "setting": "[2]; Table 1A (FIG. 14), exp2, counted after 3 days", "value": 75.00, "unit": "% NGF"}, {"measurement": "Fold change of survived neurons compared to neurons injected with PBS", "setting": "[2]; Table 2, AVG", "value": "2.14 Fold to PBS"}, {"measurement": "Fold change of survived neurons compared to neurons injected with PBS", "setting": "[2]; Table 2, exp1", "value": "2.39 Fold to PBS"}, {"measurement": "Fold change of survived neurons compared to neurons injected with PBS", "setting": "[2]; Table 2, exp2", "value": "1.89 Fold to PBS"}]}
{"sequence": "TLDLASVDLRKMRVAEPKQILHSWGEECRACAEKTDYVNLIQEPAPKYA (Mutated C-CDNF peptide) [pep14]", "values": [{"measurement": "survived neurons as % compared to neurons grown in the presence of GDNF", "setting": "[1]; [3]", "value": 71.49, "unit": "% GDNF"}, {"measurement": "survived neurons as % compared to neurons grown in the presence of GDNF", "setting": "[1]; [4]", "value": 84.24, "unit": "% GDNF"}, {"measurement": "survived neurons as % compared to neurons grown in the presence of GDNF", "setting": "[1]; [5]", "value": 85.71, "unit": "% GDNF"}, {"measurement": "survived neurons as % compared to neurons grown in the presence of GDNF", "setting": "[1]; [6]", "value": 82.81, "unit": "% GDNF"}, {"measurement": "protection of dopaminergic neurons in culture (result in words)", "setting": "[1]; added to the culture medium, 5 days, TH-positive neurons counted", "value": "best protective effect"}, {"measurement": "survived neurons as % compared to neurons grown in the presence of NGF", "setting": "[2]; [7]", "value": 55.76, "unit": "% NGF"}, {"measurement": "survived neurons as % compared to neurons grown in the presence of NGF", "setting": "[2]; [8]", "value": 34.32, "unit": "% NGF"}, {"measurement": "survived neurons as % compared to neurons grown in the presence of NGF", "setting": "[2]; [9]", "value": 48.43, "unit": "% NGF"}]}
{"sequence": "TLDLASVDLRKMRVAELKQILHSWGEECRASAEKTDYVNLIQELAPKYA (C-CDNF peptide with single amino acid substitution) [pep10]", "values": [{"measurement": "survived neurons as % compared to neurons grown in the presence of GDNF", "setting": "[1]; [3]", "value": 54.25, "unit": "% GDNF"}, {"measurement": "survived neurons as % compared to neurons grown in the presence of GDNF", "setting": "[1]; [4]", "value": 63.09, "unit": "% GDNF"}, {"measurement": "survived neurons as % compared to neurons grown in the presence of GDNF", "setting": "[1]; [5]", "value": 68.97, "unit": "% GDNF"}, {"measurement": "survived neurons as % compared to neurons grown in the presence of GDNF", "setting": "[1]; [6]", "value": 69.16, "unit": "% GDNF"}, {"measurement": "survived neurons as % compared to neurons grown in the presence of NGF", "setting": "[2]; [7]", "value": 42.46, "unit": "% NGF"}, {"measurement": "survived neurons as % compared to neurons grown in the presence of NGF", "setting": "[2]; [8]", "value": 45.16, "unit": "% NGF"}, {"measurement": "survived neurons as % compared to neurons grown in the presence of NGF", "setting": "[2]; [9]", "value": 40.35, "unit": "% NGF"}]}
